The source of these data is patent publication US11591323B2, “Muscarinic agonists as non-steroidal and non-opioid analgesics and methods of use thereof” (Barry University, priority 2019, dated 2023).

The target in one assay is T1, M4 muscarinic receptor (Homo sapiens, UniProt P08173).
T1 sequence (P08173 1-479): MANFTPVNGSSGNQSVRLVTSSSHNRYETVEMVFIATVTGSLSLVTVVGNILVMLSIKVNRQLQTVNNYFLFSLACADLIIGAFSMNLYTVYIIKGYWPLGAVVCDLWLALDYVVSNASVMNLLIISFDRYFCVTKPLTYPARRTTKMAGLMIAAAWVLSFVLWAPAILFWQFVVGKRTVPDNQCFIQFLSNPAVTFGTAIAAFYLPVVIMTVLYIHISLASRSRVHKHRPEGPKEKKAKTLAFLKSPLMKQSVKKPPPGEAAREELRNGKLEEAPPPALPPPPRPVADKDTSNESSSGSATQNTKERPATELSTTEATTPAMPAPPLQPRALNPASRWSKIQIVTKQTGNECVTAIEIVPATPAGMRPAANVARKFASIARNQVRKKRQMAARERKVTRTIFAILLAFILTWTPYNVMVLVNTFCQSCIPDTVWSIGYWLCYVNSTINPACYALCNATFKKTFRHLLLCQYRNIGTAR
The assay is described as follows: accumulation of IPX, M4 CHO cells with promiscuous G15 G-protein (M4Gq+G15). The settings on record: for E′MAX / τ / Δlog(τ/KA) / RAi: M4 Gq + G15 (↑IPX); for E′MAX / τ: Table 8; for Δlog(τ/KA): Table 8, to carbachol; for accumulation of IPX: M4 co-transfected with G15, in words; for RAi: Table 8, relative to carbachol. Format: cell-based. More on the design: expressed in transfected cells; pCMV/hygro vector, hygromycin selection. How it is done:
Since activation of phospholipase C (PLC) via M2 and M4 receptors is weak, cells were transferred with G15 G-protein to facilitate coupling.
To determine level of cAMP, cells in suspension were pre-incubated for 1 h with 0.4 μM [^3H]adenine, washed, and incubated for 10 min in the presence of isobutylmethylxanthine and 10 μM forskolin. […] Incubation was ended by addition of 0.2 ml of 2.5 M HCl to the samples. Samples were applied to alumina columns (1.5 g of alumina per column), washed with 2 ml ammonium acetate (pH=7.0) and eluted from columns with 4 ml ammonium acetate and measured by liquid scintillation spectrometry. […] The incubation was stopped by addition of 0.5 ml of chloroform methanol HCl mixture (2:1:0.1). After separation of water and organic phases, 0.6 ml of water phase was applied to Dowex columns (1.5 g of Dowex per column), washed by 20 ml of 60 mM ammonium formate/5 mM sodium borate buffer and eluted from columns with 4 ml of 1M ammonium formate/0.1 formic acid buffer and measured by liquid scintillation spectrometry.
Measurements of the production of cAMP and inositol phosphates: Levels of second messengers cAMP and inositol phosphates were determined in radiochemical chromatography assays as described previously. To determine level of cAMP, cells in suspension were pre-incubated for 1 h with 0.4 μM [^3H]adenine, washed, and incubated for 10 min in the presence of isobutylmethylxanthine and 10 μM forskolin. […] Incubation was ended by addition of 0.2 ml of 2.5 M HCl to the samples. Samples were applied to alumina columns (1.5 g of alumina per column), washed with 2 ml ammonium acetate (pH=7.0) and eluted from columns with 4 ml ammonium acetate and measured by liquid scintillation spectrometry. […] For this purpose, new CHO cell lines stably expressing promiscuous G15 G-protein and M2 or M4 receptor were generated by transfection with pCMV/hygro vector and hygromycin selection. To determine the rate of formation of inositol phosphates IPX, suspended cells were pre-incubated with 0.1 μM [^3H]myo-inositol for 60 min, washed, and incubated with 10 mM LiCl for 15 min. […] The incubation was stopped by addition of 0.5 ml of chloroform methanol HCl mixture (2:1:0.1). After separation of water and organic phases, 0.6 ml of water phase was applied to Dowex columns (1.5 g of Dowex per column), washed by 20 ml of 60 mM ammonium formate/5 mM sodium borate buffer and eluted from columns with 4 ml of 1M ammonium formate/0.1 formic acid buffer and measured by liquid scintillation spectrometry.
For bi-phasic response, curves were inhibitory and stimulatory phase were fitted separately. Operational Model of Functional Agonism
[formula] where y is functional response at concentration of tested compound x, EMAX is maximal response of the system, KA is equilibrium dissociation constant and nH is slope factor. Eq. 5 was fitted to data from functional experiments. Eq. 5 was fitted to data by the two-step procedure described earlier. […] In the second step, Eq. 5 with EMAX fixed to the value determined in the first step was fitted to individual experimental data sets. Relative Intrinsic Activity
Muscarinic receptors are also able to stimulate non-preferential signalling pathways.

Assay [1] concerns ventral tegmental area (M5). The assay is described as follows: accumulation of IPX in dissipated rat ventral tegmental area. Format: cell-based. Conditions: dissipated rat VTA, in words. The method, then:
Effects of compounds 6A and 7A were then measured ex vivo in dissipated rat tissues (FIG. 5). Accumulation of IPX was measured in dissipated brain cortex (rich in M1 & M3), submaxillary gland (M1 & M3), and ventral tegmental area (M5). Native tissues express about 10-times less muscarinic receptors than CHO cell lines. Accumulation of cAMP was measured in cerebellum (M2) and striatum (M4).
Rat dissipated tissues: Suspension of dissipated tissues from rat brain cortex, cerebellum, striatum, ventral tegmental area (VTA) and submaxillary glands was prepared as described previously in supplementary methods. Adult 8-weeks old male Wistar rats were scarified by cervical dislocation in accordance with current legislative and guidelines under permission of Czech Ministry of Agriculture 16OZ23113/2017-17214. Tissues were dissected immediately. Submaxillary glands were minced by scissors. Tissues were dispersed by incubation for 15 min at 37° C. in KHB supplemented with trypsin and trituration every 5 min. Large undissipated parts were removed by cell mesh. […]
Measurements of the production of cAMP and inositol phosphates: Levels of second messengers cAMP and inositol phosphates were determined in radiochemical chromatography assays as described previously. […] Samples were applied to alumina columns (1.5 g of alumina per column), washed with 2 ml ammonium acetate (pH=7.0) and eluted from columns with 4 ml ammonium acetate and measured by liquid scintillation spectrometry. […] After separation of water and organic phases, 0.6 ml of water phase was applied to Dowex columns (1.5 g of Dowex per column), washed by 20 ml of 60 mM ammonium formate/5 mM sodium borate buffer and eluted from columns with 4 ml of 1M ammonium formate/0.1 formic acid buffer and measured by liquid scintillation spectrometry.
To exclude the possibility that the observed effects of compounds 6A and 7A are the result of overexpression in the heterologous system, functional response to the compounds was measured ex vivo in dissipated native rat tissues. […] Accumulation of cAMP was measured in M2-rich cerebellum and M4-rich striatum.

With `C[N+](C)(C)CCOC(N)=O` [carbachol, reference compound], at M4 muscarinic receptor, the “E′MAX” value came out at 4.5 ± 0.3 fold over basal, the τ came out at 4.8 ± 0.5, the “Δlog(τ/KA)” value was determined as 0 and the “accumulation of IPX” value is listed as “stimulated accumulation of IPX”. Moreover, the “accumulation of IPX” value in assay [1] was “profound accumulation of IPX”.

Consider `C[N+]1(Cc2cccs2)CC=CCC1.[I-]` (stereo not drawn) [Compound 7A, 1-methyl-1-[(thiophen-2-yl)methyl]-1,2,3,6-tetrahydropyridin-1-ium iodide], for which, on M4 muscarinic receptor, the RAi was found to be 0 and the “accumulation of IPX” value is given as “did not stimulate IPX accumulation”. Also, the “accumulation of IPX” value in assay [1] is “negligible increase in IPX”.

`O=C1CCCN1CC#CCN1CCCC1` [oxotremorine, reference compound]: on M4 muscarinic receptor, the “E′MAX” value is 4.0 ± 0.3 fold over basal, the τ amounted to 2.5 ± 0.2, the RAi was found to be 3.50 ± 0.33 and the “Δlog(τ/KA)” value is on record as −0.54.

With `C1=CCN(Cc2cccs2)CC1.Cl` [Compound 6A, 1-[(thiophen-2-yl)methyl]-1,2,3,6-tetrahydropyridin-1-ium chloride], the RAi at M4 muscarinic receptor was 0. The entries for the “accumulation of IPX” value (at M4 muscarinic receptor; in assay [1]) were “did not stimulate IPX accumulation” and “negligible increase in IPX”, respectively.
